Data on one compound can be found in patent publication US20100010060A1, “Isoindolin-1-One-, Isoindolin-3-One- and Isoindolin-1,3-Dione-Derivatives and Use Thereof” (Bayer Healthcare AG, priority 2006, published 2010).

The target in this assay is human factor Xa (FXa) (Homo sapiens, UniProt P00742). Description: Determination of the factor Xa inhibition (chromogenic substrate). To be noted: human FXa 0.5 nmol/l, 150 μmol/l Pefachrome FXa, 25° C., pH 8.3, extinction at 405 nm. The assay is classed as biochemical. The procedure:
a.1) Determination of the Factor Xa Inhibition:
The enzymatic activity of human factor Xa (FXa) is measured using the conversion of a chromogenic substrate specific for FXa. Factor Xa cleaves p-nitroaniline from the chromogenic substrate. The determinations are carried out in microtitre plates as follows:
The test substances, in various concentrations, are dissolved in DMSO and incubated for 10 minutes at 25° C. with human FXa (0.5 nmol/l dissolved in 50 mmol/l of Tris buffer [C,C,C-tris(hydroxymethyl)aminomethane], 150 mmol/l of NaCl, 0.1% BSA [bovine serum albumin], pH=8.3). Pure DMSO is used as control. The chromogenic substrate (150 μmol/l of Pefachrome® FXa from Pentapharm) is then added. After an incubation time of 20 minutes at 25° C., the extinction at 405 nm is determined.

human factor Xa (FXa), sequence (P00742 235-488 limits assumed): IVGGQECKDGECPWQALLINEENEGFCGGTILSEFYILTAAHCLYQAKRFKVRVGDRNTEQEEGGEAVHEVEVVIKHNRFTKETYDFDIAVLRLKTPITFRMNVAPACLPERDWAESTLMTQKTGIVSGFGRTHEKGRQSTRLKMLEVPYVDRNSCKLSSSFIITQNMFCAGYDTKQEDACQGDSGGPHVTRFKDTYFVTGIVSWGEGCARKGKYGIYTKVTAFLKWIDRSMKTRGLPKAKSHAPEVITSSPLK
human factor Xa (FXa), sequence (P00742 41-179 partner limits assumed): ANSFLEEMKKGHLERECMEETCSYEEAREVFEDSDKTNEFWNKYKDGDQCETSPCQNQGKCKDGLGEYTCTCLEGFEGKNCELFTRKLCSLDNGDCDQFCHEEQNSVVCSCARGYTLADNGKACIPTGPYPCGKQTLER

In general, IC50 refers to the concentration that inhibits the measured activity by half. Turning to `N=C1OCCN1c1cccc(CN2Cc3cccc(NC(=O)c4ccc(Cl)s4)c3C2=O)c1` [Example 5, 5-Chloro-N-{2-[3-(2-imino-1,3-oxazolidin-3-yl)benzyl]-3-oxo-2,3-dihydro-1H-isoindol-4-yl}-thiophene-2-carboxamide methanesulphonate], the concentration for half-maximal inhibition (IC50) came to 1.1 nM.
